Test results from ChEMBL document CHEMBL4177704, “Synthesis and biological evaluation of water-soluble derivatives of chiral gossypol as HIV fusion inhibitors targeting gp41” (Bioorg Med Chem Lett, 2018).

Experiments:
[1] = system: Human immunodeficiency virus 1; experiment: Antiviral activity against HIV-1 3B infected in human TZM-bl cells treated for 2 hrs followed by compound washout measured after 2 days by luciferase reporter assay; type: functional, organism-based
[2] = system: TZM; experiment: (§1) Cytotoxicity against human TZM-bl cells after 72 hrs by MTT assay; type: cell-based; details: tzm, 72 h
[3] = Selectivity index, ratio of CC50 for human TZM-bl cells to IC50 for HIV-1 3B infected in human TZM-bl cells; type: toxicity, cell-based; details: for selectivity ratio: TZM-bl cells, read-out: Ratio CC50/IC50
[4] = as §1; type: cell-based; details: TZM-bl cells

Row | Compound | IC50 [1] [µM] | CC50 [2] [µM] | Ratio CC50/IC50 [3] | CC50 at 72 h [4] [µM] | selectivity ratio [3]
1 | Cc1cc2c(c(O)c1-c1c(C)cc3c(c1O)/C(=C/NC(C)C(=O)NC(Cc1ccccc1)C(=O)[O-])C(=O)C(O)=C3C(C)C)/C(=C/NC(C)C(=O)NC(Cc1ccccc1)C(=O)[O-])C(=O)C(O)=C2C(C)C.[Na+].[Na+] (stereo in doubt; (+)-5b) | 6.32 | – | 7.97 | 50.3 | –
2 | Cc1cc2c(c(O)c1-c1c(C)cc3c(c1O)/C(=C/NC(C)C(=O)NC(Cc1ccccc1)C(=O)[O-])C(=O)C(O)=C3C(C)C)/C(=C/NC(C)C(=O)NC(Cc1ccccc1)C(=O)[O-])C(=O)C(O)=C2C(C)C.[Na+].[Na+] (stereo in doubt; (-)-5a) | 1.62 | 33.3 | 20.57 | – | –
3 | Cc1cc2c(c(O)c1-c1c(C)cc3c(c1O)/C(=C/NC(CC(=O)[O-])C(=O)NC(C)C(=O)[O-])C(=O)C(O)=C3C(C)C)/C(=C/NC(CC(=O)[O-])C(=O)NC(C)C(=O)[O-])C(=O)C(O)=C2C(C)C.[Na+].[Na+].[Na+].[Na+] (single isomer, unassigned; (-)) | 1.25 | 42.6 | 34.1 | – | –
4 | Cc1cc2c(c(O)c1-c1c(C)cc3c(c1O)/C(=C/N[C@@H](Cc1ccccc1)C(=O)O)C(=O)C(O)=C3C(C)C)/C(=C/N[C@@H](Cc1ccccc1)C(=O)O)C(=O)C(O)=C2C(C)C (stereo in doubt; (-)-13a) | 6.99 | 37.7 | – | – | 5.39
5 | Cc1cc2c(c(O)c1-c1c(C)cc3c(c1O)/C(=C/NCC(=O)NCC(=O)NCC(=O)[O-])C(=O)C(O)=C3C(C)C)/C(=C/NCC(=O)NCC(=O)NCC(=O)[O-])C(=O)C(O)=C2C(C)C.[Na+].[Na+] (stereo in doubt; (-)-6a) | 1.38 | 43.8 | 31.71 | – | –
6 | Cc1cc2c(c(O)c1-c1c(C)cc3c(c1O)/C(=C/NC(C)C(=O)NCC(=O)O)C(=O)C(O)=C3C(C)C)/C(=C/NC(C)C(=O)NCC(=O)O)C(=O)C(O)=C2C(C)C (single isomer, unassigned; (-)) | 1.56 | 40.3 | – | – | 25.8
7 | Cc1cc2c(c(O)c1-c1c(C)cc3c(c1O)/C(=C/NC(C)C(=O)NC(C)C(=O)NC(C)C(=O)[O-])C(=O)C(O)=C3C(C)C)/C(=C/NC(C)C(=O)NC(C)C(=O)NC(C)C(=O)[O-])C(=O)C(O)=C2C(C)C.[Na+].[Na+] (single isomer, unassigned; (-)) | 1.45 | 39.4 | 27.19 | – | –

These reach a lower IC50 [1]. Values come first.

Row | IC50 [1] [µM] | Compound | CC50 [2] [µM] | Ratio CC50/IC50 [3] | CC50 at 72 h [4] [µM] | selectivity ratio [3]
8 | 0.49 | Cc1cc2c(c(O)c1-c1c(C)cc3c(c1O)/C(=C/N[C@H](C(=O)[O-])C(C)C)C(=O)C(O)=C3C(C)C)/C(=C/N[C@H](C(=O)[O-])C(C)C)C(=O)C(O)=C2C(C)C.[Na+].[Na+] (stereo in doubt; (-)-9a) | 49.9 | 101.82 | – | –
9 | 1.08 | Cc1cc2c(c(O)c1-c1c(C)cc3c(c1O)/C(=C/N[C@@H](Cc1c[nH]c4ccccc14)C(=O)[O-])C(=O)C(O)=C3C(C)C)/C(=C/N[C@@H](Cc1c[nH]c3ccccc13)C(=O)[O-])C(=O)C(O)=C2C(C)C.[Na+].[Na+] (stereo in doubt; (-)-12a) | 48.2 | 44.66 | – | –
10 | 0.35 | Cc1cc2c(c(O)c1-c1c(C)cc3c(c1O)/C(=C/N[C@@H](C)C(=O)[O-])C(=O)C(O)=C3C(C)C)/C(=C/N[C@@H](C)C(=O)[O-])C(=O)C(O)=C2C(C)C.[Na+].[Na+] (stereo in doubt; (-)-8a) | 64.2 | 183.29 | – | –
11 | 0.47 | CC[C@H](C)[C@H](N/C=C1\C(=O)C(O)=C(C(C)C)c2cc(C)c(-c3c(C)cc4c(c3O)/C(=C/N[C@H](C(=O)[O-])[C@@H](C)CC)C(=O)C(O)=C4C(C)C)c(O)c21)C(=O)[O-].[Na+].[Na+] (stereo in doubt; (-)-11a) | 62.2 | 132.29 | – | –
12 | 0.68 | Cc1cc2c(c(O)c1-c1c(C)cc3c(c1O)/C(=C/N[C@@H](CC(C)C)C(=O)[O-])C(=O)C(O)=C3C(C)C)/C(=C/N[C@@H](CC(C)C)C(=O)[O-])C(=O)C(O)=C2C(C)C.[Na+].[Na+] (stereo in doubt; (-)-10a) | 53.3 | 78.41 | – | –
